Measured values published in US10752588B2 (The Broad Institute, Inc., priority 2014, dated 2020).
Converted amounts (≈) assume the structure as drawn. Read-outs that look alike come from different tables or passages of the source.

How the values were obtained:
human D2R/β-arrestin [1] = molecular target: T1, human D2R/β-arrestin (Homo sapiens (Human), UniProt P14416); assay: Gi/cAMP agonist assay (Lance Ultra cAMP, Forskolin); assay type: cell-based; conditions: CHO-K1 cell line expressing human D2R/β-arrestin
T1 sequence (P14416 whole entry): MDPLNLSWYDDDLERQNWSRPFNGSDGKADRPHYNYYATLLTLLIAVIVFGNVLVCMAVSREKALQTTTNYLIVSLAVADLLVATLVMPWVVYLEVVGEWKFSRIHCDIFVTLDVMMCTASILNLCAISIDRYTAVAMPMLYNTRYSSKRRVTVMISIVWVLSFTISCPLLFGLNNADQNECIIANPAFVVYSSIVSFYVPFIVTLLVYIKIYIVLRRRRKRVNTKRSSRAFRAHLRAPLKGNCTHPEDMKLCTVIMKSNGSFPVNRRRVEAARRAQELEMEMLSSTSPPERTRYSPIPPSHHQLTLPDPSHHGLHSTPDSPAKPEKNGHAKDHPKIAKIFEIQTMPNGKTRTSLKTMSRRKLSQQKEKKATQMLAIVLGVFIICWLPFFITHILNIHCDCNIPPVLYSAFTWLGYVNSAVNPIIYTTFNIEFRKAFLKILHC
Method in brief: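 Cells were plated and incubated before compounds were pin-transferred and incubated for 10 min at 37 °C. Forskolin was then added to stimulate cAMP. cAMP was detected by Lance Ultra TR-FRET using Eu-cAMP tracer and ULight-anti-cAMP antibody.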

human D2R/β-arrestin [2] = molecular target: T1, human D2R/β-arrestin; assay: cell-based; conditions: β-arrestin Antagonist, CHO-K1 cell line expressing human D2R/β-arrestin; quinpirole used as agonist
human D2R/β-arrestin [3] = molecular target: T1, human D2R/β-arrestin; conditions: read-out: cAMP Antagonist
human D2R/β-arrestin [4] = molecular target: T1, human D2R/β-arrestin; assay: β-Arrestin agonist assay (PathHunter); assay type: cell-based; conditions: CHO-K1 cell line expressing human D2R/β-arrestin
Method in brief: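 After compound incubation, detection reagent (Buffer:Emerald II:Galactor-Star, 19:5:1) added and luminescence or fluorescence read.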

D2 = D2 (Homo sapiens (Human), UniProt P14416); assay: D2 radioligand binding assay
Chain of D2 (P14416 whole entry): as above

human D2R/β-arrestin [5] = molecular target: T1, human D2R/β-arrestin; assay: cell-based; conditions: cAMP Antagonist, CHO-K1 cell line expressing human D2R/β-arrestin; quinpirole used as agonist
[6] = Microsomal stability, human; assay type: in vitro ADME
Plasma stability, rat = assay type: in vitro ADME
[7] = Microsomal stability, rat; assay type: in vitro ADME
[8] = Microsomal stability, mouse
Plasma stability, human = assay type: in vitro ADME
plasma protein [9] = assay: Plasma protein binding, mouse; assay type: in vitro ADME; conditions: for fraction unbound: plasma, read-out: Plasma Protein Binding % bound
Solubility in PBS = assay type: physicochemical; conditions: aqueous buffer
human D2R/β-arrestin [10] = molecular target: T1, human D2R/β-arrestin; conditions: read-out: β-arrestin Antagonist
plasma protein [11] = assay: Plasma protein binding, human; assay type: in vitro ADME; conditions: plasma, read-out: Plasma Protein Binding % bound
[12] = CHO-K1 cell line expressing human D2R/β-arrestin, quinpirole used as agonist

SMILES	EC50 (human D2R/β-arrestin [1]) [nM]	IC50 (human D2R/β-arrestin [2]) [nM]	IC50 (human D2R/β-arrestin [3]; [12]) [nM]	EC50 (human D2R/β-arrestin [4]) [nM]	Ki (D2) [nM]	IC50 (human D2R/β-arrestin [5]) [nM]	Microsomal Stability: % remaining after 60 minutes [6] [%]	Plasma Stability: % remaining after 5 hours (Plasma stability, rat) [%]	Microsomal Stability: % remaining after 60 minutes [7] [%]	Plasma Stability: % remaining after 5 hours (Plasma stability, mouse)	Microsomal Stability: % remaining after 60 minutes [8]	Plasma Stability: % remaining after 5 hours (Plasma stability, human) [%]	fraction unbound (plasma protein [9])	solubility (Solubility in PBS) [µM]	IC50 (human D2R/β-arrestin [10]; [12]) [nM]	IC50 (human D2R/β-arrestin [3]) [nM]	Plasma Protein Binding % bound (plasma protein [9])	IC50 (human D2R/β-arrestin [10]) [nM]	fraction unbound (plasma protein [11])
CC1(C(=O)NC(c2ccc(F)cc2)c2ccccn2)CCN(CCOc2ccccc2)CC1 (single isomer, unassigned) [Compound 69b, N-((4-fluorophenyl)(pyridin-2-yl)methyl)-4-methyl-1-(2-phenoxyethyl)piperidine-4-carboxamide]	< 100	100 to 1000	> 30000	100 to 1000	100 to 1000	–	–	–	–	–	–	–	–	–	–	–	–	–	–
O=C(NC(c1ccc(Cl)cc1)c1ccccn1)C1CCN(CCOc2cccc(C(F)(F)F)c2)CC1 (stereo not drawn) [Compound 7, N-((4-chlorophenyl)(pyridin-2-yl)methyl)-1-(2-(3-(trifluoromethyl)phenoxy)ethyl) piperidine-4-carboxamide]	100 to 1000	100 to 1000	–	> 30000	–	100 to 1000	87	93.5	76	100%	44%	91.5	0.004	0.7 (≈ 0.363 µg/mL)	–	–	–	–	–
COc1cccc(C(c2ccccn2)N(C)CC2CCN(CCOc3ccccc3F)CC2)c1 (single isomer, unassigned) [Compound 77a, N-((1-(2-(2-fluorophenoxy)ethyl)piperidin-4-yl)methyl)-1-(3-methoxyphenyl)-N-methyl-1-(pyridin-2-yl)methanamine]	100 to 1000	100 to 1000	–	> 30000	100 to 1000	100 to 1000	–	–	–	–	m1%	–	–	–	–	–	–	–	–
CC1(C(=O)NC(c2ccc(Cl)cc2)c2ccccn2)CCN(CCOc2ccccc2)CC1 (single isomer, unassigned) [Compound 144a, N-((4-chlorophenyl)(pyridin-2-yl)methyl)-4-methyl-1-(2-phenoxyethyl)piperidine-4-carboxamide]	< 100	< 100	–	< 100	< 100	> 30000	–	–	–	–	m1%	–	–	–	–	–	–	–	–
O=C(NC(c1ccc2c(c1)OC(F)(F)O2)c1ccccn1)C1CCN(CCOc2ccccc2F)CC1 (single isomer, unassigned) [Compound 94a, N-((2,2-difluorobenzo[d][1,3]dioxol-5-yl)(pyridin-2-yl)methyl)-1-(2-(2-fluorophenoxy)ethyl)piperidine-4-carboxamide]	> 30000	100 to 1000	–	> 30000	100 to 1000	< 100	–	–	–	–	m2%	–	–	–	–	–	–	–	–
CN(CC1CCN(CCOc2ccccc2F)CC1)C(c1ccc(Cl)cc1)c1ccccn1 (stereo not drawn) [Compound 72, 1-(4-chlorophenyl)-N-((1-(2-(2-fluorophenoxy)ethyl)piperidin-4-yl)methyl)-N-methyl-1-(pyridin-2-yl)methanamine]	< 100	< 100	–	> 30000	< 100	1000 to 10000	–	–	–	–	–	–	–	–	–	–	–	–	–
O=C(NC(c1ccc(Cl)cc1)c1ccccn1)C1CCN(CCOc2ccc(C(F)(F)F)cc2)CC1 (stereo not drawn) [Compound 8, N-((4-chlorophenyl)(pyridin-2-yl)methyl)-1-(2-(4-(trifluoromethyl)phenoxy)ethyl) piperidine-4-carboxamide]	10000 to 30000	10000 to 30000	–	> 30000	–	> 30000	82	98.1	100	100%	53%	100	–	1.1 (≈ 0.57 µg/mL)	–	–	–	–	–
CN(CC1CCN(CCOc2ccccc2)CC1)C(c1ccc(Cl)cc1)c1ccccn1 (single isomer, unassigned) [Compound 79b, 1-(4-chlorophenyl)-N-methyl-N-((1-(2-phenoxyethyl)piperidin-4-yl)methyl)-1-(pyridin-2-yl)methanamine]	100 to 1000	–	–	> 30000	100 to 1000	> 30000	–	–	–	m100%	m0%	–	–	8 (≈ 3.6 µg/mL)	1000 to 10000	–	–	–	–
CN(CC1CCN(CCOc2ccccc2F)CC1)C(c1ccc(Cl)cc1)c1ccccn1 (single isomer, unassigned) [Compound 72a, 1-(4-chlorophenyl)-N-((1-(2-(2-fluorophenoxy)ethyl)piperidin-4-yl)methyl)-N-methyl-1-(pyridin-2-yl)methanamine]	100 to 1000	100 to 1000	–	1000 to 10000	100 to 1000	> 30000	–	–	–	m100%	m0%	–	–	1.4 (≈ 0.655 µg/mL)	–	–	–	–	–
Clc1ccc(C(NCC2CCN(CCOc3ccccc3)CC2)c2ccccn2)cc1 (single isomer, unassigned) [Compound 114a, 1-(4-chlorophenyl)-N-((1-(2-phenoxyethyl)piperidin-4-yl)methyl)-1-(pyridin-2-yl)methanamine]	100 to 1000	< 100	–	> 30000	100 to 1000	< 100	–	–	–	–	–	–	–	–	–	–	–	–	–
O=C(NC(c1ccc2c(c1)OC(F)(F)O2)c1ccccn1)C1CCN(CCOc2ccccc2F)CC1 (single isomer, unassigned) [Compound 94b, N-((2,2-difluorobenzo[d][1,3]dioxol-5-yl)(pyridin-2-yl)methyl)-1-(2-(2-fluorophenoxy)ethyl)piperidine-4-carboxamide]	< 100	> 30000	–	100 to 1000	100 to 1000	> 30000	–	–	–	–	m26%	–	–	–	–	–	–	–	–
FC(F)(F)CN(CC1CCN(CCOc2ccccc2)CC1)C(c1ccc(Cl)cc1)c1ccccn1 (stereo not drawn) [Compound 125, N-((4-chlorophenyl)(pyridin-2-yl)methyl)-2,2,2-trifluoro-N-((1-(2-phenoxyethyl)piperidin-4-yl)methyl)ethanamine]	100 to 1000	100 to 1000	–	> 30000	100 to 1000	100 to 1000	–	–	–	–	m12%	–	–	–	–	–	–	–	–
O=C(NC(c1ccc2c(c1)OC(F)(F)O2)c1ccccn1)C1CCN(CCOc2ccccc2)CC1 (single isomer, unassigned) [Compound 119b]	< 100	–	–	100 to 1000	–	–	–	–	–	m100%	m51%	–	–	–	–	> 30000	m97.4%	1000 to 10000	–
Clc1ccc(C(c2ccccn2)N2CCC3(CCN(CCOc4ccccc4)CC3)C2)cc1 (stereo not drawn) [Compound 105, 2-((4-chlorophenyl)(pyridin-2-yl)methyl)-8-(2-phenoxyethyl)-2,8-diazaspiro[4.5]decane]	100 to 1000	100 to 1000	–	1000 to 10000	< 100	> 30000	–	–	–	–	m18%	–	–	–	–	–	–	–	–
O=C(NC(c1ccc2c(c1)OCO2)c1ccccn1)C1CCN(CCOc2ccccc2F)CC1 (stereo not drawn) [Compound 95, N-(benzo[d][1,3]dioxol-5-yl(pyridin-2-yl)methyl)-1-(2-(2-fluorophenoxy)ethyl) piperidine-4-carboxamide]	100 to 1000	100 to 1000	–	> 30000	100 to 1000	100 to 1000	–	–	–	–	m33%	–	–	–	–	–	–	–	–
O=C(NC(c1ccc(Cl)cc1)c1ccccn1)C1CCN(CCOc2ccccc2C(F)(F)F)CC1 (stereo not drawn) [Compound 6]	> 30000	< 100	–	> 30000	100 to 1000	< 100	52	69.3	32	98.8%	22%	99	0.008	0.7 (≈ 0.363 µg/mL)	–	–	–	–	0.007
O=C(NC(c1ccc(Cl)cc1)c1ccc(F)cn1)C1CCN(CCOc2ccccc2F)CC1 (stereo not drawn) [Compound 92, N-((4-chlorophenyl)(5-fluoropyridin-2-yl)methyl)-1-(2-(2-fluorophenoxy)ethyl)piperidine-4-carboxamide]	100 to 1000	100 to 1000	–	> 30000	100 to 1000	100 to 1000	–	–	–	–	m22%	–	–	–	–	–	–	–	–
